Data reported in patent publication US20240307372A1, “COMPOSITIONS AND METHODS TO IMPROVE BENEFIT OF SUBOPTIMALLY ADMINISTERED THERAPEUCTICS FOR THE TREATMENT OF BENIGN AND NEOPLASTIC DISEASES, INFECTIONS, INFLAMMATORY, METABOLIC AND IMMUNOLOGIAL DISEASES” (priority 2023, published 2024).
“And” between values parts separate entries of the source, which are not always exact repeats. Equal entries are not always repeated.

How the values were obtained:
K562 cells = experiment: K562 cell viability after TET exposure (trypan blue); format: cell-based, human; details: 24 hours
Experimental: Briefly, the method for the first portion of the study was as follows: K562 cells were grown and maintained in medium (RPMI, 10% FBS, Pen Strep and […]). Cells were then exposed to TET, 0, 0.1, 1, 5, 10, 20 & 40 μM for 24 hours at 37° C. Following drug exposure, cell viability was checked using trypan blue, followed by cell lysis. Supernatants were collected and test for protein concentration using a Pierce BCA kit. The protein assay tubes were read on a Spectramax at 562 nm and Softmax@ software was used for protein concentration analysis.
The effect of TET treatment on K562 percent cell viability is depicted in Table 2 and is graphically illustrated in FIG. 2.

beta-Actin = beta-Actin level in K562 cell extracts by western blot; format: cell-based, human; details: K562 cells treated with up to 40 uM
Experimental: Briefly, the method to quantitate β-catenin protein by western blot was as follows: Extracts of K562 cells (untreated and treated with various concentrations of tetrandrine) were concentrated to 0.4 ml using Centricon-3 column to yield a protein concentration of approximately 2 mg/ml. Samples were mixed with 5× Laemmli buffer and loaded on 8-16% Tris-Glycine gradient gel, then polyacrylamide gel electrophoresis (PAGE) was run at 85 volts for 100 minutes at 6° C. and proteins were transferred on PVDF membrane at 70 Volts for 85 minutes at 8° C. Membrane was blocked with 5% milk in Tris-buffered Saline containing 0.1% TW-20 (TBST). Membrane was incubated with primary antibody for 18 hours at 4° C. followed by 3 washes, 5 minutes each, with TBST and incubated with secondary antibody in TBST for 2 hours at 25° C. The membrane was washed again with TBST as described above and incubated with ECL-2 substrate for 5 minutes and scanned on Kodak Image Station. After scan, blot was stripped of primary and secondary antibodies and re-probed with anti-beta Actin antibody as described above. Protein bands in WB images were quantitated using Molecular Imaging software pack MIS-4.0 software and tabulated in Excel spreadsheet.

[1] = tested on: human chronic myeloid leukemia (CML) progenitors; experiment: Colony forming cell (CFC) assay on CML patient bone marrow cells, methylcellulose-based medium
Experimental: An in vitro investigation was performed to determine whether TET has efficacy on human chronic myeloid leukemia (CML) stem-like cells. A colony forming cell (CFC) assay was performed on bone marrow cells from a de-novo CML patient.
Human bone marrow light density cells derived from CML patient bone marrow (Conversant Bio, Alabama), were stored in the gaseous phase of liquid nitrogen until required. On the day of the experiment, the cells were thawed rapidly, the contents of the vial were diluted in 10 mL of Iscove's Modified Dulbecco's Medium containing 10% fetal bovine serum (IMDM+10% FBS) and washed by centrifugation (approximately 1200 r.p.m. for 10 minutes, room temperature). The supernatant was discarded and the cell pellets resuspended in a known volume of IMDM+10% FBS. A cell count (3% glacial acetic acid) and viability assessment (trypan blue exclusion test) […] Tetrandrine (10 μM) for 14 days. After treatment, primary and secondary colonies were grown and analyzed by qPCR to determine BCR-ABL or ABL only cells.
Human erythroid (CFU-E and BFU-E) and myeloid (CFU-GM) colony enumeration were performed by trained personnel. In addition, the distribution of colony types as well as general colony and cellular morphology were analyzed. […] For statistical analysis, colony numbers in compound-treated cultures were compared to the solvent control cultures.

[2] = tested on: leukemic cells and leukemic stem cells; experiment: BCR-ABL CML mouse model (bone marrow transplantation), oral treatment; format: in vivo; details: mice, orally, 150 mg/kg, 1×/day
Experimental: In an in vivo model, the effectiveness of Tetrandrine was tested on CML stem cells. The objective of the study was to determine the survival of leukemic cells and leukemic stem cells in response to the treatment with Tetrandrine. After priming donor C57BL/6 (B6) mice with intravenous injections of 5-fluorouracil for four days, bone marrow cells were harvested from femurs and tibia, then transfected twice with retrovirus containing MSCV-BCR-ABL-IRES-GFP. Recipient mice were lethally irradiated by two doses of 550 cGy before bone marrow transplantation by intravenous injection with 5×10^5 cells/mouse. Blood from recipient mice was tested for disease induction one week after transduction by FACS analysis for GFP (FIG. 7A). […] Treatments started on day 8 after bone marrow transplantation (FIG. 7B).

CAMKII gamma = molecular target: T1, CAMKII gamma (Homo sapiens, UniProt Q13555); experiment: CAMKII gamma kinase activity, ADP Glo (Promega); format: biochemical; details: for CAMKII gamma kinase activity inhibition (in words): 10 or 50 uM ATP
T1 construct: purchased Promega V3531
Experimental: An enzymatic study was conducted to evaluate the inhibition of CAMKII gamma by ES-3000 (Tetrandrine). CAMKII gamma kinase activity was measured using […] purchased from Promega following the Promega protocol. CAMKII enzyme system purchased from Promega (V3531). ADP Glo was used for detection. Assay optimized for linearity of protein and time. Conditions for inhibitor screening 25 ng CAMKII, 20 min. incubations, inhibitor or DMSO (5%) at RT in 20 uL total volume. Inhibitor, ATP (10 or 50 uM), substrates and buffer added to tubes and reactions started with enzyme. […] Reactions terminated at 20 min. by adding ADP Glo reaction following manufactures instructions. All reactions were done in duplicate. Calculations of percent (%) inhibition determined by dividing the mean activity at each condition by the mean of the DMSO control times 100.

[3] = tested on: human breast, colon carcinoma, and hepatoma cell lines; details: read-out: IC50 range; cited from earlier work
HCT116 cells = details: human colorectal (HCT116) cells; cited from earlier work
[4] = tested on: colorectal (CT-26) xenografts; details: colorectal (CT-26) mouse xenografts; cited from earlier work
calmodulin (CaM) = calmodulin (CaM) (Homo sapiens, UniProt P0DP23); details: cited from earlier work

T1 sequence (Q13555 whole entry): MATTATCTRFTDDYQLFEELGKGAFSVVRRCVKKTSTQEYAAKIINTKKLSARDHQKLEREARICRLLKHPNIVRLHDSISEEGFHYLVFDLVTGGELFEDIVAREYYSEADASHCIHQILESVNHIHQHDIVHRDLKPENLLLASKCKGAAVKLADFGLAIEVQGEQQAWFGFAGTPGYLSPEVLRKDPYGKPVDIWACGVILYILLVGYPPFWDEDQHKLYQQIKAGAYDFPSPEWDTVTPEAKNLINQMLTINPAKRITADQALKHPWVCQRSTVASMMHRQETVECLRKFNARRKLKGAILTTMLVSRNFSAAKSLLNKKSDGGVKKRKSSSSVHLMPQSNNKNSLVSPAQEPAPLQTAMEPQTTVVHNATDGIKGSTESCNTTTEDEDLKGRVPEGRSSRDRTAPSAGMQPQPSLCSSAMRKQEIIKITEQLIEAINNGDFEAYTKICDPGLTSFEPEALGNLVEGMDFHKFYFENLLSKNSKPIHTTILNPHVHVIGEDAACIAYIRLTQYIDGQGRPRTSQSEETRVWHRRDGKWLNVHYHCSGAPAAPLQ

In the case of “6,6′,7,12-tetramethoxy-2,2′-dimethyl-berbaman [ES-3000]”, the “% Viability” value (K562 cells; 0.1 μM) is reported as 82.4%, the “% Viability” value (K562 cells; 1 μM) is reported as 79.2% and the “% Viability” value (K562 cells; 5 μM) is reported as 81.8%. The “% Viability” value (K562 cells; 10 μM) was 79.7%, the “% Viability” value (K562 cells; 20 μM) was 76.5% and the “% Viability” value (K562 cells; 40 μM) was 56.4%. The “beta-Actin level (quantitation of protein bands)” value (beta-Actin) was “not affected significantly”, the CFU-GM colonies ([1]; 10 μM) was 26 ± 2 and the “Total CFC” value ([1]; 10 μM) was 26 ± 2. For the same substance, the IC50 ([1]; read-out: Myeloid IC50 ± 95% CI, Human progenitors) was 9.56 ± 1.25 µM, the “inhibiting the development of circulating leukemic cells” value ([2]; listed as TET) was “reduced the development of leukemic cells in the peripheral blood” and the “inhibiting the development of leukemic stem cells” value ([2]; listed as TET) was “reduced the development of”. For the same substance, the “inhibiting the development of circulating leukemic cells” value ([2]; listed as Tetrandrine) was “superior to Imatinib”, the “inhibiting the development of leukemic stem cells” value ([2]; listed as Tetrandrine) was “superior to Imatinib” and the “% inhibition” value (CAMKII gamma; 30 uM, 10 uM ATP) was 29.1% and 29%. The “CamKIIγ activity, mean” value (CAMKII gamma; 30 uM, 10 uM ATP) was 3.09 units, the “CamKIIγ activity, units (duplicates)” value (CAMKII gamma; 30 uM, 10 uM ATP) was 2.75 units and 3.43 units and the “kinase activity, % of DMSO control” value (CAMKII gamma; 30 uM, 10 uM ATP) was 71%. For the same substance, the “% inhibition” value (CAMKII gamma; 30 uM, 50 uM ATP) was 15%, the “CamKIIγ activity, mean” value (CAMKII gamma; 30 uM, 50 uM ATP) was 10.55 units and the “CamKIIγ activity, units (duplicates)” value (CAMKII gamma; 30 uM, 50 uM ATP) was 10.4 units and 10.7 units. The “kinase activity, % of DMSO control” value (CAMKII gamma; 30 uM, 50 uM ATP) was 85%, the “% inhibition” value (CAMKII gamma; 100 uM, 10 uM ATP) was 34.2% and 34% and the “CamKIIγ activity, mean” value (CAMKII gamma; 100 uM, 10 uM ATP) was 2.87 units. The “CamKIIγ activity, units (duplicates)” value (CAMKII gamma; 100 uM, 10 uM ATP) was 2.5 units and 3.24 units, the “kinase activity, % of DMSO control” value (CAMKII gamma; 100 uM, 10 uM ATP) was 66% and the “% inhibition” value (CAMKII gamma; 100 uM, 50 uM ATP) was 36%. For the same substance, the “CamKIIγ activity, mean” value (CAMKII gamma; 100 uM, 50 uM ATP) was 7.955 units, the “CamKIIγ activity, units (duplicates)” value (CAMKII gamma; 100 uM, 50 uM ATP) was 8.81 units and 7.1 units and the “kinase activity, % of DMSO control” value (CAMKII gamma; 100 uM, 50 uM ATP) was 64%. The “% inhibition” value (CAMKII gamma; 250 uM, 10 uM ATP) was 90.6% and 91%, the “CamKIIγ activity, mean” value (CAMKII gamma; 250 uM, 10 uM ATP) was 0.41 units and the “CamKIIγ activity, units (duplicates)” value (CAMKII gamma; 250 uM, 10 uM ATP) was 0.34 units and 0.48 units. The “kinase activity, % of DMSO control” value (CAMKII gamma; 250 uM, 10 uM ATP) was 9%, the “CAMKII gamma kinase activity inhibition (in words)” value (CAMKII gamma) was “inhibited CAMKII gamma kinase activity in a dose dependent manner” and the “CAMKII gamma kinase activity inhibition (in words)” value (CAMKII gamma; listed as TET) was “inhibited the activation of CaMKIIγ in a dose dependent manner”. For the same substance, the IC50 [3] was 1.53 to 10.4 µM, the “wnt/β-catenin signaling and tumor growth” value (HCT116 cells) was “inhibit wnt/β-catenin signaling and tumor growth” and the tumor growth [4] was “reduced tumor growth by inducing apoptosis”. The “binding to calmodulin (CaM)” value (calmodulin (CaM)) was “bind competitively to calmodulin (CaM)”.
